Where a name gives a salt, the structure may show the parent alone.
Each molecule was assayed against T1, Human full-length CaMKIIδ (Homo sapiens, UniProt Q13557) (assay: Human CaMKII enzyme inhibition assay (radiometric kinase assay)). Details: 3 μM compound; 500 nM ATP; 0.5 nM CaMKIIδ.
T1 construct: Human full-length CaMKIIδ (Cat #02-111) was obtained from Carna Biosciences; GST; purchased Carna Biosciences 02-111
Assay type: biochemical
Protocol: In Vitro CaMKIIδ Inhibitory Activity was Evaluated by an Enzyme Assay.
Human CaMKII Enzyme Inhibition Assay
Kinase assay for CaMKIIs was performed using the radiometric assay. Human full-length CaMKIIδ (Cat #02-111) was obtained from Carna Biosciences (Kobe, Japan).
Enzyme reactions were performed in 25 mM HEPES, pH 7.5, with 5 mM magnesium chloride, 1 mM calcium chloride, 10 μg/mL Calmodulin, 2 mM DTT, 0.01% Tween20 and 500 nM ATP (0.2 μCi/well of [γ-33P] ATP) containing 0.5 nM CaMKIIδ and 0.1 μM autophosphorylation peptide (KKALRRQETVDAL)(Toray Research Center).
After incubating the enzyme, peptide, and compounds for 5 min, kinase reactions were initiated by adding ATP, followed by incubation for 60 min at room temperature in a total volume of 50 μL. The reactions were terminated by the addition of 10% trichloroacetic acid (final concentration). The [γ-33P]-phosphorylated proteins were filtered in a Harvest Plate (Merck Millipore) with a Cell Harvester (PerkinElmer) and then free [γ-33P] ATP was washed out with 3% phosphoric acid. The plates were dried, followed by the addition of 40 μl of MicroScintO (PerkinElmer). The radioactivity was counted by a TopCount scintillation counter (PerkinElmer). The signals of the reaction without enzyme were defined as 100% inhibitory activity and those of the reaction without inhibitors as 0% inhibitory activity. In vitro CaMKIIδ inhibitory activity was evaluated by % inhibitory activity of 3 μM compound concentration.
With COc1cc(N2CCC(N3CCOCC3)CC2)ccc1Nc1ncc(-c2ccc(C#N)c(O[C@@H](C)Cn3cnnn3)c2)cn1 [Example 9, 4-(2-((2-methoxy-4-(4-(morpholin-4-yl)piperidin-1-yl)phenyl)amino)pyrimidin-5-yl)-2-(((2S)-1-(1H-tetrazol-1-yl)propan-2-yl)oxy)benzonitrile] the “CaMKIIδ inhibitory activity (%) at 3 μM” value was 99%.

Same assay, conditions: 3 μM compound; 500 nM ATP; 0.5 nM CaMKIIδ; read-out: CaMKIIδ inhibitory activity (%) at 3 μM
Work on C[C@@H](Cn1cncn1)Oc1cc(-c2cnc(Nc3cnn(CC(C)(C)C#N)c3)nc2)ccc1C#N [Example 365, 4-(2-((1-(2-cyano-2-methylpropyl)-1H-pyrazol-4-yl)amino)pyrimidin-5-yl)-2-(((2S)-1-(1H-1,2,4-triazol-1-yl)propan-2-yl)oxy)benzonitrile] yielded an inhibition at 3 µM of 98%.
In the case of COc1cc(N2CCC(N3CCOCC3)CC2)ccc1Nc1ncc(-c2ccc(C#N)c(O[C@@H](C)Cn3cnnn3)c2)cn1 [Example 10, 4-(2-((2-methoxy-4-(4-(morpholin-4-yl)piperidin-1-yl)phenyl)amino)pyrimidin-5-yl)-2-(((2S)-1-(1H-tetrazol-1-yl)propan-2-yl)oxy)benzonitrile hydrochloride], the inhibition at 3 µM is reported as 98%.
With C[C@@H](Cn1ncnn1)Oc1cc(-c2cnc(Nc3cnn(C)c3)nc2)ccc1C#N [Example 411, 4-(2-((1-methyl-1H-pyrazol-4-yl)amino)pyrimidin-5-yl)-2-(((2S)-1-(2H-tetrazol-2-yl)propan-2-yl)oxy)benzonitrile] the inhibition at 3 µM was 93%.
In the case of COc1cc(C(=O)N2CCOCC2)ccc1Nc1ncc(-c2ccc(C#N)c(O[C@@H](C)Cn3cnnn3)c2)cn1 [Example 82, 4-(2-((2-methoxy-4-(morpholin-4-ylcar-bonyl)phenyl)amino)pyrimidin-5-yl)-2-(((2S)-1-(1H-tetrazol-1-yl)propan-2-yl)oxy)benzonitrile], the inhibition at 3 µM is reported as 98%.
In the case of COc1cc(C2CCN(C3COC3)CC2)ccc1Nc1ncc(-c2ccc(C#N)c(O[C@@H](C)Cn3cnnn3)c2)cn1 [Example 75, 4-(2-((2-methoxy-4-(1-(oxetan-3-yl)piperidin-4-yl)phenyl)amino)pyrimidin-5-yl)-2-(((2S)-1-(1H-tetrazol-1-yl)propan-2-yl)oxy)benzonitrile], the inhibition at 3 µM is reported as 98%.
In the case of COc1nc(N2CCC(N3CCOCC3)CC2)ncc1Nc1ncc(-c2ccc(C#N)c(O[C@@H](C)Cn3cnnn3)c2)cn1 [Example 56, 4-(2-((4-methoxy-2-(4-(morpholin-4-yl)piperidin-1-yl)pyrimidin-5-yl)amino)pyrimidin-5-yl)-2-(((2S)-1-(1H-tetrazol-1-yl)propan-2-yl)oxy)benzonitrile], the inhibition at 3 µM is reported as 98%.
COCCN1CCC(c2ccc(Nc3ncc(-c4ccc(C#N)c(O[C@@H](C)Cn5cnnn5)c4)cn3)c(OC)c2)CC1 [Example 85, 4-(2-((2-methoxy-4-(1-(2-methoxyethyl)piperidin-4-yl)phenyl)amino)pyrimidin-5-yl)-2-(((2S)-1-(1H-tetrazol-1-yl)propan-2-yl)oxy)benzonitrile] showed an inhibition at 3 µM of 98%.
For COc1ccc(N2CCC(N3CCOCC3)CC2)cc1Nc1ncc(-c2ccc(C#N)c(O[C@@H](C)Cn3cnnn3)c2)cn1 [Example 202, 4-(2-((2-methoxy-5-(4-(morpholin-4-yl)piperidin-1-yl)phenyl)amino)pyrimidin-5-yl)-2-(((2S)-1-(1H-tetrazol-1-yl)propan-2-yl)oxy)benzonitrile], the inhibition at 3 µM was 99%.
COc1cc(C(=O)N2CCC(OC)CC2)ccc1Nc1ncc(-c2ccc(C#N)c(O[C@@H](C)Cn3cnnn3)c2)cn1 [Example 152, 4-(2-((2-methoxy-4-((4-methoxypiperidin-1-yl)carbonyl)phenyl)ami-no)pyrimidin-5-yl)-2-(((2S)-1-(1H-tetrazol-1-yl)propan-2-yl)oxy)benzonitrile] showed an inhibition at 3 µM of 98%.
Work on COc1cc(N2CCC(N3CCOCC3)CC2)c(F)cc1Nc1ncc(-c2ccc(Cl)c(O[C@@H](C)Cn3cnnn3)c2)cn1 [Example 205, 5-(4-chloro-3-(((2S)-1-(1H-tetrazol-1-yl)propan-2-yl)oxy)phenyl)-N-(5-fluoro-2-methoxy-4-(4-(morpholin-4-yl)piperidin-1-yl)phenyl)pyrimidin-2-amine] yielded an inhibition at 3 µM of 99%.
Molecule Cc1nn(C)cc1Nc1ncc(-c2ccc(C#N)c(O[C@@H](C)Cn3cnnn3)c2)cn1 [Example 372, 4-(2-((1,3-dimethyl-1H-pyrazol-4-yl)amino)pyrimidin-5-yl)-2-(((2S)-1-(1H-tetrazol-1-yl)propan-2-yl)oxy)benzonitrile] has an inhibition at 3 µM of 98%.
COc1ccc(N2CCC(N3CCOCC3)CC2)cc1Nc1ncc(-c2ccc(Cl)c(O[C@@H](C)Cn3cnnn3)c2)cn1 [Example 214, 5-(4-chloro-3-(((2S)-1-(1H-tetrazol-1-yl)propan-2-yl)oxy)phenyl)-N-(2-methoxy-5-(4-(morpholin-4-yl)piperidin-1-yl)phenyl)pyrimidin-2-amine] was tested, and the inhibition at 3 µM was 100%.
For CC(C)n1cc(Nc2ncc(-c3ccc(C#N)c(O[C@@H](C)Cn4ncnn4)c3)cn2)cn1 [Example 371, 4-(2-((1-isopropyl-1H-pyrazol-4-yl)amino)pyrimidin-5-yl)-2-(((2S)-1-(2H-tetrazol-2-yl)propan-2-yl)oxy)benzonitrile], the inhibition at 3 µM was 94%.
Molecule C[C@@H](Cn1cncn1)Oc1cc(-c2cnc(Nc3cnn(C4CC4)c3)nc2)ccc1C#N [Example 361, 4-(2-((1-cyclopropyl-1H-pyrazol-4-yl)amino)pyrimidin-5-yl)-2-(((2S)-1-(1H-1,2,4-triazol-1-yl)propan-2-yl)oxy)benzonitrile] has an inhibition at 3 µM of 98%.
With COc1cc(N2CCC(N3CCOCC3)CC2)ccc1Nc1ncc(-c2ccc(C#N)c(O[C@@H](C)Cn3cnnc3)c2)cn1 [Example 17, 4-(2-((2-methoxy-4-(4-(morpholin-4-yl)piperidin-1-yl)phenyl)amino)pyrimidin-5-yl)-2-(((2S)-1-(4H-1,2,4-triazol-4-yl)propan-2-yl)oxy)benzonitrile] the inhibition at 3 µM was 98%.
For C[C@@H](O)Cn1cc(Nc2ncc(-c3ccc(C#N)c(O[C@@H](C)Cn4cncn4)c3)cn2)cn1 [Example 416, 4-(2-((1-((2R)-2-hydroxypropyl)-1H-pyrazol-4-yl)amino)pyrimidin-5-yl)-2-(((2S)-1-(1H-1,2,4-triazol-1-yl)propan-2-yl)oxy)benzonitrile], the inhibition at 3 µM was 98%.
Cn1cc(Nc2ncc(-c3ccc(C#N)c(O[C@@H](CO)Cn4cccn4)c3)cn2)cn1 [Example 402, 2-(((2R)-1-hydroxy-3-(1H-pyrazol-1-yl)propan-2-yl)oxy)-4-(2-((1-methyl-1H-pyrazol-4-yl)amino)pyrimidin-5-yl)benzonitrile] gave an inhibition at 3 µM of 82%.
COc1cc(N2CCC(N3CCNCC3)CC2)ccc1Nc1ncc(-c2ccc(C#N)c(O[C@@H](C)Cn3cnnn3)c2)cn1 [Example 34] was tested, and the inhibition at 3 µM was 99%.
In the case of COc1nc(N2CCC(N3CCOCC3)CC2)ccc1Nc1ncc(-c2ccc(Cl)c(O[C@@H](C)Cn3cnnn3)c2)cn1 [Example 212, 5-(4-chloro-3-(((2S)-1-(1H-tetrazol-1-yl)propan-2-yl)oxy)phenyl)-N-(2-methoxy-6-(4-(morpholin-4-yl)piperidin-1-yl)pyridin-3-yl)pyrimidin-2-amine], the inhibition at 3 µM is reported as 99%.
C[C@@H](Cn1cncn1)Oc1cc(-c2cnc(Nc3cn[nH]c3)nc2)ccc1C#N [Example 379, 4-(2-(1H-pyrazol-4-ylamino)pyrimidin-5-yl)-2-(((2S)-1-(1H-1,2,4-triazol-1-yl)propan-2-yl)oxy)benzonitrile] showed an inhibition at 3 µM of 98%.
In the case of COc1cc(N2CCC(N3C4CCC3COC4)CC2)ccc1Nc1ncc(-c2ccc(Cl)c(O[C@@H](C)Cn3cnnn3)c2)cn1 [Example 210, 5-(4-chloro-3-(((2S)-1-(1H-tetrazol-1-yl)propan-2-yl)oxy)phenyl)-N-(2-methoxy-4-(4-(3-oxa-8-azabicyclo[3.2.1]oct-8-yl)piperidin-1-yl)phenyl)pyrimidin-2-amine], the inhibition at 3 µM is reported as 100%.
COc1cc(C2CCN(C3COC3)CC2)ccc1Nc1ncc(-c2ccc(Cl)c(O[C@@H](C)Cn3cnnn3)c2)cn1 [Example 206, 5-(4-chloro-3-(((2S)-1-(1H-tetrazol-1-yl)propan-2-yl)oxy)phenyl)-N-(2-methoxy-4-(1-(oxetan-3-yl)piperidin-4-yl)phenyl)pyrimidin-2-amine] showed an inhibition at 3 µM of 99%.

Source: patent US10543212B2, “Substituted amines for treating cardiac diseases” (Cardurion Pharmaceuticals, LLC, priority 2017, dated 2020)
